# From US12612416B2, “Modulators of cystic fibrosis transmembrane conductance regulator” (VERTEX PHARMACEUTICALS INCORPORATED, priority 2020, dated 2026)
# Read-outs that look alike come from different tables or passages of the source.
# Assays:
# [1] = amide bond, HATU/DIEA, DMF, 25.0 °C, 0.083 h
# [2] = target: T1, F508del in NIH 3T3 cells (Homo sapiens, UniProt P13569, DEL508-508); assay: 3T3 assay: membrane potential optical assay for F508del correction; assay type: cell-based, mouse; conditions: F508del NIH 3T3 cells; for EC50: compound incubation 18-24 hours at 37° C., forskolin activation; for 3T3 Max Activity: efficacy compared to lumacaftor in combination with acutely added 300 nM Ivacaftor
# T1 construct: expressed in transfected cells
# T1 sequence (P13569 with tags, fused parts or gaps DEL508-508): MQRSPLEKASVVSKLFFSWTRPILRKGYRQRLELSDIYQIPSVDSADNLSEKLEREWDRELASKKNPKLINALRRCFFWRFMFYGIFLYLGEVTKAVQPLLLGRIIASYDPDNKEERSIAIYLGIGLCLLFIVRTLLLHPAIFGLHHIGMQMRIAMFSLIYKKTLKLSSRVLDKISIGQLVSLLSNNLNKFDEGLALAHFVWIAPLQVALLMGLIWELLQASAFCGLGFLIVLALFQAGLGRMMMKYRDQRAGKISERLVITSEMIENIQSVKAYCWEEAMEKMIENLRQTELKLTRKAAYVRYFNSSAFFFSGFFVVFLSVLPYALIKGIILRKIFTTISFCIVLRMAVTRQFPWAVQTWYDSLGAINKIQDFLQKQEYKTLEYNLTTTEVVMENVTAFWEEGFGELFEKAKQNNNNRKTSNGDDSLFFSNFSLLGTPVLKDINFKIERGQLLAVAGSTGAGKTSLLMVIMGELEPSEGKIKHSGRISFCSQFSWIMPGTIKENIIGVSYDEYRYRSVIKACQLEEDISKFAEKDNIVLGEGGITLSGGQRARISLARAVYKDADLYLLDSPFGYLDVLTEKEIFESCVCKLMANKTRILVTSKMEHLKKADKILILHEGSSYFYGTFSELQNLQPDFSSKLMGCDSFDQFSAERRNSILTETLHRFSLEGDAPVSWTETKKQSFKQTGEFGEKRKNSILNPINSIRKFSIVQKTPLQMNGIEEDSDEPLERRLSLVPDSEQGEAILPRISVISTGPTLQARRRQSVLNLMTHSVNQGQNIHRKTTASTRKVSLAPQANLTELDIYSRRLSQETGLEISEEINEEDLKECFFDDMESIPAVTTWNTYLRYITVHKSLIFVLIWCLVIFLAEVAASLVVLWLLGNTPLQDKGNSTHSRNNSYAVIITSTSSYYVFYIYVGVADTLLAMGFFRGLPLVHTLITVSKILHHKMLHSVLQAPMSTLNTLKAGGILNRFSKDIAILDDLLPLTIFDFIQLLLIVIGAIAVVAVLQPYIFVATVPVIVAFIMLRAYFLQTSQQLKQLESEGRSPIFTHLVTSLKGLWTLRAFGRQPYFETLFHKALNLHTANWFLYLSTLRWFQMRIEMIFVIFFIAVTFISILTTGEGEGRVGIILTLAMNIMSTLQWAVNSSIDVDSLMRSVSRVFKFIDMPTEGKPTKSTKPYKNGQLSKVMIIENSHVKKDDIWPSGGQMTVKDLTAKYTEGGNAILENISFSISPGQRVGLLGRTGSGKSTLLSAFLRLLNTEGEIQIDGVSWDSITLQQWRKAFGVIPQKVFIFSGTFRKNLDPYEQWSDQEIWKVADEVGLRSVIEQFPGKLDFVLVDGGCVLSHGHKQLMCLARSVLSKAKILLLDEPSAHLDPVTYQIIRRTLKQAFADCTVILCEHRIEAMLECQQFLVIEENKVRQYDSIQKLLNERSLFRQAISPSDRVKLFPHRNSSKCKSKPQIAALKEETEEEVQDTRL
# Source text: The assay utilizes fluorescent voltage sensing dyes to measure changes in membrane potential using a fluorescent plate reader (e.g., FLIPR III, Molecular Devices, Inc.) as a readout for increase in functional F508del in NIH 3T3 cells. The driving force for the response is the creation of a chloride ion gradient in conjunction with channel activation by a single liquid addition step after the cells have previously been treated with compounds and subsequently loaded with a voltage sensing dye.
# To identify correctors of F508del, a single-addition HTS assay format was developed. This HTS assay utilizes fluorescent voltage sensing dyes to measure changes in membrane potential on the FLIPR III as a measurement for increase in gating (conductance) of F508del in F508del NIH 3T3 cells. The F508del NIH 3T3 cell cultures were incubated with the corrector compounds at a range of concentrations for 18-24 hours at 37° C., and subsequently loaded with a redistribution dye. The driving force for the response is a Cl^− ion gradient in conjunction with channel activation with forskolin in a single liquid addition step using a fluorescent plate reader such as FLIPR III.
# Bath Solution #1: (in mM) NaCl 160, KCl 4.5, CaCl2) 2, MgCl2 1, HEPES 10, pH 7.4 with NaOH.
# Chloride-free bath solution: Chloride salts in Bath Solution #1 (above) are substituted with gluconate salts.
# NIH3T3 mouse fibroblasts stably expressing F508del are used for optical measurements of membrane potential. The cells are maintained at 37° C. in 5% CO2 and 90% humidity in Dulbecco's modified Eagle's medium supplemented with 2 mM glutamine, 10% fetal bovine serum, 1×NEAA, b-ME, 1×pen/strep, and 25 mM HEPES in 175 cm^2 culture flasks. For all optical assays, the cells were seeded at ˜20,000/well in 384-well Matrigel-coated plates. For the correction assays, the cells are cultured at 37° C. with and without compounds for 16-24 hours.
# [3] = amide bond, 13-membered ring, HATU/DIEA, 25.0 °C
# [4] = target: T2, CFTR-mediated chloride transport in human intestinal epithelial enteroid cells (Homo sapiens, UniProt P13569); assay: Membrane potential dye, Enteroid Assay B; assay type: cell-based
# T2 sequence (P13569 with tags, fused parts or gaps DEL508-508): as above
# Description: (§1) Base medium (ADF+++) consisted of Advanced DMEM/Ham's F12, 2 mM Glutamax, 10 mM HEPES, […] penicillin/streptomycin.
# (§2) Intestinal enteroid maintenance medium (IEMM) consisted of ADF+++, 1×B27 supplement, 1×N2 supplement, 1.25 mM N-acetyl cysteine, 10 mM Nicotinamide, 50 ng/mL hEGF, 10 nM Gastrin, 1 μg/mL hR-spondin-1, 100 ng/mL hNoggin, TGF-b type 1 inhibitor A-83-01, 100 μg/mL Primocin, 10 μM P38 MAPK inhibitor SB202190.
# (§3) Bath 1 Buffer consisted of 1 mM MgCl2, 160 mM NaCl, 4.5 mM KCl, 10 mM HEPES, 10 mM Glucose, 2 mM CaCl2).
# (§4) Chloride Free Buffer consisted of 1 mM Magnesium Gluconate, 2 mM Calcium Gluconate, 4.5 mM Potassium Gluconate, 160 mM Sodium Gluconate, 10 mM HEPES, 10 mM Glucose.
# (§5) BathI Dye Solution consisted of Bath 1 Buffer, 0.04% Pluronic F127, 20 μM Methyl Oxonol, 30 μM CaCCinh-A01, 30 μM Chicago Sky Blue.
# (§6) Chloride Free Dye Solution consisted of Chloride Free Buffer, 0.04% Pluronic F127, 20 μM Methyl Oxonol, 30 μM CaCCinh-A01, 30 μM Chicago Sky Blue.
# (§7) Chloride Free Dye Stimulation Solution consisted of Chloride Free Dye Solution, 10 μM forskolin, 100 μM IBMX, and 300 nM Compound III.
# (§8) Human intestinal epithelial enteroid cells were obtained from the Hubrecht Institute for Developmental Biology and Stem Cell Research, Utrecht, The Netherlands and expanded in T-Flasks as previously described (Dekkers J F, Wiegerinck C L, de Jonge H R, Bronsveld I, Janssens H M, de Winter-de Groot K M, Brandsma A M, de Jong N W M, Bijvelds M J C, Scholte B J, Nieuwenhuis E E S, van den Brink S, Clevers H, van der Ent C K, Middendorp S and M Beekman J M. A functional CFTR assay using primary cystic fibrosis intestinal organoids. Nat Med. 2013 July; 19(7):939-45.).
# (§9) Cells were recovered in cell recovery solution, collected by centrifugation at 650 rpm for 5 minutes at 4° C., resuspended in TrypLE and incubated for 5 minutes at 37° C. Cells were then collected by centrifugation at 650 rpm for 5 minutes at 4° C. and resuspended in IEMM containing 10 μM ROCK inhibitor (RI). The cell suspension was passed through a 40 μm cell strainer and resuspended at 1×10^6 cells/mL in IEMM containing 10 μM RI. Cells were seeded at 5000 cells/well into multi-well plates and incubated for overnight at 37° C., 95% humidity and 5% CO2 prior to assay.
# (§10) Enteroid cells were incubated with test compound in IEMM for 18-24 hours at 37° C., 95% humidity, and 5% C02. […] Briefly, cells were washed 5 times in Bath 1 Buffer. Bath 1 Dye Solution was added and the cells were incubated for 25 minutes at room temperature. Following dye incubation, cells were washed 3 times in Chloride Free Dye Solution. Chloride transport was initiated by addition of Chloride Free Dye Stimulation Solution and the fluorescence signal was read for 15 minutes. […] Chloride transport was then expressed as a percentage of the chloride transport following treatment with 1 μM (14S)-8-[3-(2-{Dispiro[2.0.2.1]heptan-7-yl}ethoxy)-1H-pyrazol-1-yl]-12,12-dimethyl-2λ^6-thia-3,9,11,18,23-pentaazatetracyclo[17.3.1.111,14.05,10]tetracosa-1(22),5,7,9,19(23),20-hexaene-2,2,4-trione, 3 μM (R)-1-(2,2-difluorobenzo[d][1,3]dioxol-5-yl)-N-(1-(2,3-dihydroxypropyl)-6-fluoro-2-(1-hydroxy-2-methylpropan-2-yl)-1H-indol-5-yl)cyclopropanecarboxamide and 300 nM acute N-[2,4-bis(1,1-dimethylethyl)-5-hydroxyphenyl]-1,4-dihydro-4-oxoquinoline-3-carboxamide triple combination control (% Activity).
# [5] = target: T2, CFTR-mediated chloride transport in human intestinal epithelial enteroid cells; assay: Membrane potential dye, Enteroid Assay A; assay type: cell-based
# Description: as §1, §2, §3, §4, §5, §6, §7, §8, §9
# as §10, with “95% humidity” for “95% humidity,”, “was added,” for “was added”, “with 3” for “with 1”, “μM (S)—N-((6-aminopyridin-2-yl)sulfonyl)-6-(3-fluoro-5-isobutoxyphenyl)-2-(2,2,4-trimethylpyrrolidin-1-yl)nicotinamide,” for “μM (14S)-8-[3-(2-{Dispiro[2.0.2.1]heptan-7-yl}ethoxy)-1H-pyrazol-1-yl]-12,12-dimethyl-2λ^6-thia-3,9,11,18,23-pentaazatetracyclo[17.3.1.111,14.05,10]tetracosa-1(22),5,7,9,19(23),20-hexaene-2,2,4-trione,”
SMILES,EC50 [2] [nM],3T3 Max Activity [2],further results
"Cc1cccc(C)c1-c1cc2nc(n1)NS(=O)(=O)c1cccc(c1)NC(=O)c1cccc(c1)C2 [Compound 2, 5-(2,6-Dimethylphenyl)-9 λ6-thia-6,8,15,23-tetraazatetracyclo [15.3.1.13,7.110,14]tricosa-1(21),3(23),4,6,10,12,14(22),17,19-nonaene-9,9,16-trione]",1000 to 3000,+++ (+++ is >60%),"ring closure, yield after HPLC ([1]; from Cc1cccc(C)c1-c1cc(Cc2cccc(C(=O)O)c2)nc(NS(=O)(=O)c2cccc(N)c2)n1, 14-membered ring, 86.8 mM, 3 steps): 14%"
Cc1cccc(C)c1-c1cc2nc(n1)NS(=O)(=O)c1cccc(c1)NC(=O)CCCC2 [Compound 12],1000 to 3000,+++ (+++ is >60%),–
COC(=O)CCCN1CCC(C)c2cc(-c3c(C)cccc3C)nc(n2)NS(=O)(=O)c2cccc(c2)C1=O (centres unmarked),–,–,"ring closure, isolated yield ([3]; from COC(=O)CCCNCCC(C)c1cc(-c2c(C)cccc2C)nc(NS(=O)(=O)c2cccc(C(=O)O)c2)n1, NMP, 22.1 mM, 15.0 h): 90%"
Cc1cccc(C)c1-c1cc2nc(n1)NS(=O)(=O)c1cccc(c1)C(=O)N(C1CC3(CC(NC(=O)OC(C)(C)C)C3)C1)[C@H](CC(C)C)CC2 (some centres unmarked),–,–,"ring closure, isolated yield ([3]; from Cc1cccc(C)c1-c1cc(CC[C@@H](CC(C)C)NC2CC3(CC(NC(=O)OC(C)(C)C)C3)C2)nc(NS(=O)(=O)c2cccc(C(=O)O)c2)n1, NMP, 27.3 mM, 2.0 h): 88%"
Cc1cccc(C)c1-c1cc2nc(n1)NS(=O)(=O)c1cccc(c1)C(=O)N(C1CC3(CCN(C(=O)OC(C)(C)C)CC3)C1)[C@H](CC(C)C)CC2,–,–,"ring closure, isolated yield ([3]; from Cc1cccc(C)c1-c1cc(CC[C@@H](CC(C)C)NC2CC3(CCN(C(=O)OC(C)(C)C)CC3)C2)nc(NS(=O)(=O)c2cccc(C(=O)O)c2)n1, NMP, 97.4 mM, 2.0 h): 68%"
"Cc1cccc(C)c1-c1cc2nc(n1)NS(=O)(=O)c1cccc(c1)C(=O)NCCC2c1ccc(C(C)(C)C)cc1 (centres unmarked) [Compound 5, 9-(4-tert-Butylphenyl)-6-(2,6-dimethylphenyl)-2,2-dioxo-2 λ6-thia-3,5,12,19-tetrazatricyclo[12.3.1.14,8]nonadeca-1(18),4(19),5,7,14,16-hexaen-13-one]",–,–,"ring closure, isolated yield ([3]; from Cc1cccc(C)c1-c1cc(C(CCN)c2ccc(C(C)(C)C)cc2)nc(NS(=O)(=O)c2cccc(C(=O)O)c2)n1, DMF, 11.6 mM, 21.0 h): 40%; Ent. B Max Activity ([4]; % of chloride transport of triple combination control: 1 μM (14S)-8-[3-(2-{Dispiro[2.0.2.1]heptan-7-yl}ethoxy)-1H-pyrazol-1-yl]-12,12-dimethyl-...-2,2,4-trione, 3 μM tezacaftor, 300 nM acute ivacaftor): +++ (+++ is >60%); EC50 ([4]; enteroid cells, 18-24 hours incubation, acute 10 μM forskolin and 300 nM ivacaftor, read-out: Ent. B EC50): < 1000 nM"
Cc1cccc(C)c1-c1cc2nc(n1)NS(=O)(=O)c1cccc(c1)C(=O)O[C@H](c1ccc(C(C)(C)C)cn1)[C@@H](CC(C)C)N2C [Compound 35],< 1000,+++ (+++ is >60%),"Ent. A Max Activity ([5]; % of chloride transport of triple combination control: 3 μM (S)-N-((6-aminopyridin-2-yl)sulfonyl)-6-(3-fluoro-5-isobutoxyphenyl)-2-(2,2,4-trimethylpyrrolidin-1-yl)nicotinamide, 3 μM tezacaftor, 300 nM acute ivacaftor): ++ (++ is 30-60%); EC50 ([5]; enteroid cells, 18-24 hours incubation, acute 10 μM forskolin and 300 nM ivacaftor, read-out: Ent. A EC50): 1000 to 3000 nM"
"Cc1cccc(C)c1-c1cc2nc(n1)NS(=O)(=O)c1cccc(c1)NC(=O)CCCCC2 [Compound 1, 6-(2,6-dimethylphenyl)-2,2-dioxo-2 λ6-thia-3,5,15,21-tetrazatricyclo[14.3.1.14,8]henicosa-1(20),4(21),5,7,16,18-hexaen-14-one]",< 1000,+++ (+++ is >60%),"ring closure, yield after HPLC ([1]; from Cc1cccc(C)c1-c1cc(CCCCCC(=O)O)nc(NS(=O)(=O)c2cccc(N)c2)n1, 15-membered ring, 33.5 mM, 2 steps): 40%"
Cc1cccc(C)c1-c1cc2nc(n1)NS(=O)(=O)c1cccc(c1)NC(=O)CCC2 [Compound 13],1000 to 3000,+++ (+++ is >60%),–
